Measurements reported in ChEMBL document CHEMBL1201862, “PubChem BioAssay data set” (2004).
Values belong to the compound of their own block, whether it stands above or below them. Active and inactive are the calls of the source.

Assays:
Assay type in all cases: functional
[1] = target: Megakaryocyte-associated tyrosine-protein kinase (Homo sapiens, UniProt P42679);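 further: affinity measured as one member of a kinase panel (Navigating the Kinome) against MATK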
[2] = target: Dual specificity protein kinase CLK2 (Homo sapiens, UniProt P49760)
[3] = target: Dual specificity mitogen-activated protein kinase kinase 1 (Homo sapiens, UniProt Q02750); experiment: Navigating the Kinome. Panel member name: MAP2K1
[4] = target: RAC-gamma serine/threonine-protein kinase (Homo sapiens, UniProt Q9Y243)
[5] = target: Serine/threonine-protein kinase pim-1 (Homo sapiens, UniProt P11309)
Aurora kinase A = Aurora kinase A (Homo sapiens, UniProt O14965);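 further: value from the Navigating the Kinome kinase panel profiling, panel entry STK6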
[6] = target: MAP kinase-activated protein kinase 5 (Homo sapiens, UniProt Q8IW41);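 further: measured as one member of a kinome panel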
[7] = target: MAP kinase-activated protein kinase 2 (Homo sapiens, UniProt P49137);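 further: measured as one member of a kinome-wide kinase panel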
[8] = target: Cell division cycle 7-related protein kinase (Homo sapiens, UniProt O00311);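 further: value obtained from a kinome-wide kinase panel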
[9] = target: Casein kinase II subunit alpha (Homo sapiens, UniProt P68400)
[10] = target: Fibroblast growth factor receptor 1 (Homo sapiens, UniProt P11362)
[11] = target: Casein kinase I isoform gamma-1 (Homo sapiens, UniProt Q9HCP0);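 further: measured as the CSNK1G1 member of a kinome profiling panel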
[12] = target: Testis-specific serine/threonine-protein kinase 1 (Homo sapiens, UniProt Q9BXA7)
[13] = target: Homeodomain-interacting protein kinase 2 (Homo sapiens, UniProt Q9H2X6);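 further: measured within a kinome-wide kinase profiling panel, HIPK2 being one panel member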
[14] = target: Glycogen synthase kinase-3 alpha (Homo sapiens, UniProt P49840);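 further: GSK3A result taken from a broad kinome-wide kinase panel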
[15] = target: Receptor tyrosine-protein kinase erbB-2 (Homo sapiens, UniProt P04626); experiment: Navigating the Kinome. Panel member name: ERBB2
[16] = target: Serine/threonine-protein kinase Chk1 (Homo sapiens, UniProt O14757);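 further: measured as one member of a kinome-wide kinase profiling panel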
[17] = target: MAP kinase-interacting serine/threonine-protein kinase 2 (Homo sapiens, UniProt Q9HBH9)
[18] = target: Protein-tyrosine kinase 6 (Homo sapiens, UniProt Q13882)
[19] = target: T1, Interleukin-1 receptor-associated kinase 4 (Homo sapiens, UniProt Q9NWZ3)
T1 sequence (Q9NWZ3 whole entry): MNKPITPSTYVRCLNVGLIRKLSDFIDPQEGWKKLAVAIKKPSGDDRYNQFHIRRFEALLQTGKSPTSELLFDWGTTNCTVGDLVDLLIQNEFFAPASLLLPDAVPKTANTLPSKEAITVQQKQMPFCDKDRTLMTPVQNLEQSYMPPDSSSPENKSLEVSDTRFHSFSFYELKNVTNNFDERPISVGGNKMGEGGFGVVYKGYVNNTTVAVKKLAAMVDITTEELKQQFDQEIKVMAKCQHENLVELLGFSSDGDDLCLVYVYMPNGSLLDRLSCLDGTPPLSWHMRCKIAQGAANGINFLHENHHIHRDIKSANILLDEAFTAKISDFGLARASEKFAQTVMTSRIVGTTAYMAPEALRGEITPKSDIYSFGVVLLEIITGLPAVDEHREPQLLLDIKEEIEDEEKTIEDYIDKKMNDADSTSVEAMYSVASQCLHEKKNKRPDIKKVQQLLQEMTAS

[20] = target: Tyrosine-protein kinase Fer (Homo sapiens, UniProt P16591);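 further: FER tested as one member of a kinome panel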
[21] = target: Cyclin-dependent kinase 8 (Homo sapiens, UniProt P49336); experiment: Navigating the Kinome. Panel member name: CDK8
[22] = target: STE20-like serine/threonine-protein kinase (Homo sapiens, UniProt Q9H2G2)
[23] = target: Glycogen synthase kinase-3 beta (Homo sapiens, UniProt P49841);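 further: value comes from a broad kinome profiling panel, with GSK3B as the panel member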
[24] = target: T2, Mitogen-activated protein kinase 12 (Homo sapiens, UniProt P53778);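 further: measured as one member of a kinome-wide kinase profiling panel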
T2 sequence (P53778 whole entry): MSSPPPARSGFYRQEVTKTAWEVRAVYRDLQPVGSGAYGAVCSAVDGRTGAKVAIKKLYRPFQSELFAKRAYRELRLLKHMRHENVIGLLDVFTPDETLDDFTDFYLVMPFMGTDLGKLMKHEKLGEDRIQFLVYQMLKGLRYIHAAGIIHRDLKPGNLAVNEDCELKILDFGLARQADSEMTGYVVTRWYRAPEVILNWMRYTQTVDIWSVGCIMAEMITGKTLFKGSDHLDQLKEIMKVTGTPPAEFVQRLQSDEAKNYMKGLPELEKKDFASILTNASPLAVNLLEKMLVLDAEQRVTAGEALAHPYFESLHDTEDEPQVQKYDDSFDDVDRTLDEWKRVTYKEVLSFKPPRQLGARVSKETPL

[25] = target: Dual specificity protein kinase CLK4 (Homo sapiens, UniProt Q9HAZ1)
[26] = target: Calcium/calmodulin-dependent protein kinase type II subunit alpha (Homo sapiens, UniProt Q9UQM7); experiment: Navigating the Kinome. Panel member name: CAMK2A
[27] = target: Tyrosine-protein kinase FRK (Homo sapiens, UniProt P42685);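 further: FRK tested as one member of a kinome panel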
[28] = target: Ribosomal protein S6 kinase alpha-5 (Homo sapiens, UniProt O75582)
[29] = target: Inhibitor of nuclear factor kappa-B kinase subunit alpha (Homo sapiens, UniProt O15111)
Focal adhesion kinase 1 = Focal adhesion kinase 1 (Homo sapiens, UniProt Q05397);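 further: measured as one member of a kinome panel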
[30] = target: Cyclin-dependent kinase 1 (Homo sapiens, UniProt P06493);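 further: Kinome-wide panel profiling, with the target listed as panel member CDC2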
[31] = target: Calcium/calmodulin-dependent protein kinase kinase 2 (Homo sapiens, UniProt Q96RR4); experiment: Navigating the Kinome. Panel member name: CAMKK2

Sequence of Cell division cycle 7-related protein kinase (O00311 whole entry): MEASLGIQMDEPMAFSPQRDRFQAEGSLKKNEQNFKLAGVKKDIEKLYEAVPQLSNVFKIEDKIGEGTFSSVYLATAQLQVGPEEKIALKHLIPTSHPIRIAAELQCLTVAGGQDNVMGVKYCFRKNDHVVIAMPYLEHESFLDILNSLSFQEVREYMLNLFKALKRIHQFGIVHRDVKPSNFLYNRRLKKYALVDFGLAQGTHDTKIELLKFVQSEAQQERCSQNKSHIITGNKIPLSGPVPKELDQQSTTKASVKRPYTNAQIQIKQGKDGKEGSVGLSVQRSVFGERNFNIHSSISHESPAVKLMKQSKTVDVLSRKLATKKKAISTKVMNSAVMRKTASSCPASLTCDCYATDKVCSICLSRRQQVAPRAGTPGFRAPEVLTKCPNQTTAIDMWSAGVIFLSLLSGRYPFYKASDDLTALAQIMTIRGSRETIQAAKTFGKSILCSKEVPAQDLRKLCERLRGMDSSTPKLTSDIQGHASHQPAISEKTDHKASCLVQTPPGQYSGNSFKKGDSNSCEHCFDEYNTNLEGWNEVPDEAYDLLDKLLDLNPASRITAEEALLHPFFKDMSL
Sequence of Homeodomain-interacting protein kinase 2 (Q9H2X6 whole entry): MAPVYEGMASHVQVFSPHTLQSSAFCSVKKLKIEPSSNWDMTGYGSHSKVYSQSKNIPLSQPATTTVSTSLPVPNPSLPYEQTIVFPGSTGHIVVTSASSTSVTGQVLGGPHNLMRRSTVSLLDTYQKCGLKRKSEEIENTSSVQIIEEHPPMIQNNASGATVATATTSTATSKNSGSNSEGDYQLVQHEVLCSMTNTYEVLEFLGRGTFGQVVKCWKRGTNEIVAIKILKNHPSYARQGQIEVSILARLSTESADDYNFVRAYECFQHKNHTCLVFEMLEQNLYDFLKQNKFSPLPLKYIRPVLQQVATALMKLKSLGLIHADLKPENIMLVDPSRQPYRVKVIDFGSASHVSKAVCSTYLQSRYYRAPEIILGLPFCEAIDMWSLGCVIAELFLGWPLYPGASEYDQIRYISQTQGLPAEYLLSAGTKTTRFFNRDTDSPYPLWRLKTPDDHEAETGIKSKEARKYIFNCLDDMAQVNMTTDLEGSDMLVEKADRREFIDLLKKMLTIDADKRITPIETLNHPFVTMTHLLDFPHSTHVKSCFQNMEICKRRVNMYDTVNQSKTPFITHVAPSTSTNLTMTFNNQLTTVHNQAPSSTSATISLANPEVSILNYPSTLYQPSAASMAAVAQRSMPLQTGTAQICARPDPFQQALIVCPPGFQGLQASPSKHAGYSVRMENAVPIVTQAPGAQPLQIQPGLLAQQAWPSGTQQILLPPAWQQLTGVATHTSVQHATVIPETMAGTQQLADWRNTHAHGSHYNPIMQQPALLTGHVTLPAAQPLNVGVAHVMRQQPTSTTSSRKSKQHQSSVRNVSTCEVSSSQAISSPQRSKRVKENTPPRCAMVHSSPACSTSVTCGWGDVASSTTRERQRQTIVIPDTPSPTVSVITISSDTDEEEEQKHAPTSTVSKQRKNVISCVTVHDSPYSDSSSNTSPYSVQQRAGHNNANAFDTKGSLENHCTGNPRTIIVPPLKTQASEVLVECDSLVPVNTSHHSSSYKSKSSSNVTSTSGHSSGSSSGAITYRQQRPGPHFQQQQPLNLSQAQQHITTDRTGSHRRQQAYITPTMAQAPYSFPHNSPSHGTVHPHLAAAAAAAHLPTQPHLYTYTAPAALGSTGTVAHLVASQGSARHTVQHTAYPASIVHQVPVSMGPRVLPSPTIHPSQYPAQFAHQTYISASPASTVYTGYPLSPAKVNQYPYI
Sequence of RAC-gamma serine/threonine-protein kinase (Q9Y243 whole entry): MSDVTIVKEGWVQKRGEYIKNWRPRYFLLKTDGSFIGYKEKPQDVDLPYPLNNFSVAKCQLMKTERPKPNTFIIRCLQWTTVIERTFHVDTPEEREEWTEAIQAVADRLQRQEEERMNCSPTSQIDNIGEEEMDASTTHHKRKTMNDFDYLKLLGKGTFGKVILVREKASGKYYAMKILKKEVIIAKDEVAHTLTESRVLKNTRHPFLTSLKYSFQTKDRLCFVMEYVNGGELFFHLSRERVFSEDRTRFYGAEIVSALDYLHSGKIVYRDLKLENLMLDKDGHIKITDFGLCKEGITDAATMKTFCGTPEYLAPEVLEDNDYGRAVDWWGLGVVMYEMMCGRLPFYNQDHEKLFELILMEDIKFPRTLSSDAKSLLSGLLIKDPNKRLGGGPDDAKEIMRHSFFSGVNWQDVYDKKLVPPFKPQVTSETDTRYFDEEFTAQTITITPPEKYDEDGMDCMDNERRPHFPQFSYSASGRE
Sequence of STE20-like serine/threonine-protein kinase (Q9H2G2 whole entry): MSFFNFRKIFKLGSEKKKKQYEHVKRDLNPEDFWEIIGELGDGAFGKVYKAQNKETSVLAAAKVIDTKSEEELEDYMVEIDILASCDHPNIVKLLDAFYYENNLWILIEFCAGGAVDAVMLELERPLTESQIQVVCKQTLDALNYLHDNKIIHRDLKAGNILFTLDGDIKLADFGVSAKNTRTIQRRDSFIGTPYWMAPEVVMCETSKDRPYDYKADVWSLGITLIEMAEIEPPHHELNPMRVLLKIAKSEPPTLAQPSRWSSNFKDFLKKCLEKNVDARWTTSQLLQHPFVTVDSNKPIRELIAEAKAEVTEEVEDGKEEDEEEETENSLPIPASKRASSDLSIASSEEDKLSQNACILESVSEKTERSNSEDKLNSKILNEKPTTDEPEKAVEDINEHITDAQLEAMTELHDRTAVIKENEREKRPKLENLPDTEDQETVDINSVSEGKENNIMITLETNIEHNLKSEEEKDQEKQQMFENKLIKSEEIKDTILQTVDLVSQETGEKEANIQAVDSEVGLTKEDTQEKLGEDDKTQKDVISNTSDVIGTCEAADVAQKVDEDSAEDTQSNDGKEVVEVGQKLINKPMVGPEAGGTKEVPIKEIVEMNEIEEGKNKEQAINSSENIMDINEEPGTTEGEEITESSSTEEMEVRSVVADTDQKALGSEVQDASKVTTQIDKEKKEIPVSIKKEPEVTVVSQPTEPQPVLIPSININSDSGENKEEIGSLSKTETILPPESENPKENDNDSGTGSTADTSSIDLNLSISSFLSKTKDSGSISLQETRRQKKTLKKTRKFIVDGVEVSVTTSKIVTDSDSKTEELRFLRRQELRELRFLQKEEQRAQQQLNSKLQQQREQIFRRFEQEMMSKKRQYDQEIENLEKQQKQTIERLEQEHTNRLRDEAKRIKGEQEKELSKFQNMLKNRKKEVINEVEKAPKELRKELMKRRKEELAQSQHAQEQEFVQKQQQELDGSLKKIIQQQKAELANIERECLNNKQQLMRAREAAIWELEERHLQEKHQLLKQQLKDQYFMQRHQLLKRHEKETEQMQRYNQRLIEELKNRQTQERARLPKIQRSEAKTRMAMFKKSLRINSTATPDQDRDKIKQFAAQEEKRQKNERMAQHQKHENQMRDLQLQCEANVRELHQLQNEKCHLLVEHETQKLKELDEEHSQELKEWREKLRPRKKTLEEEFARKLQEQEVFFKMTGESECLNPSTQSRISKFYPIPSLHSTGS
Sequence of Tyrosine-protein kinase FRK (P42685 whole entry): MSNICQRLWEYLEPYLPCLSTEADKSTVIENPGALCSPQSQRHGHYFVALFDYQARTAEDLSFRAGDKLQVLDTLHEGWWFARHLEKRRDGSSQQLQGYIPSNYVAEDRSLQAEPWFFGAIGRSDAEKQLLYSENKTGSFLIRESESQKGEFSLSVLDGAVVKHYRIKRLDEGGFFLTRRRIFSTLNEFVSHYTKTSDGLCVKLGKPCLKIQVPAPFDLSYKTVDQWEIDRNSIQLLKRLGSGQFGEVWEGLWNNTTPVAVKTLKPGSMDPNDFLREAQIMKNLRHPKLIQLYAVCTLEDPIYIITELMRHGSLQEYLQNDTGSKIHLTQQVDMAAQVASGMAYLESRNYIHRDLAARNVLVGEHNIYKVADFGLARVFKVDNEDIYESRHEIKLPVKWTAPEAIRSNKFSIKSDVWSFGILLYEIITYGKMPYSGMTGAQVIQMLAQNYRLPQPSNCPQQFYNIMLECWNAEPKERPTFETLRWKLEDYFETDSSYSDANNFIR
Sequence of Casein kinase I isoform gamma-1 (Q9HCP0 whole entry, canonical isoform): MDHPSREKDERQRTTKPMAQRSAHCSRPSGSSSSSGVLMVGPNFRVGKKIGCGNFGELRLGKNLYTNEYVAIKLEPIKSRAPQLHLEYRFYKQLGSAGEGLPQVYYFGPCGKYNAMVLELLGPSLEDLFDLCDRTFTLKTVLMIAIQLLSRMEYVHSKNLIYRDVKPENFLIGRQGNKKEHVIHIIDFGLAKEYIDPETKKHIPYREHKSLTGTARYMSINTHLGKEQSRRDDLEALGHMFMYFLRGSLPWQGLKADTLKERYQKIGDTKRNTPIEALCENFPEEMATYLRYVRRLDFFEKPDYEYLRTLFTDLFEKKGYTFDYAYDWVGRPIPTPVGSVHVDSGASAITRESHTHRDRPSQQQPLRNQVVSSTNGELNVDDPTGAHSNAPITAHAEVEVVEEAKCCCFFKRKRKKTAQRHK
Sequence of Glycogen synthase kinase-3 alpha (P49840 whole entry): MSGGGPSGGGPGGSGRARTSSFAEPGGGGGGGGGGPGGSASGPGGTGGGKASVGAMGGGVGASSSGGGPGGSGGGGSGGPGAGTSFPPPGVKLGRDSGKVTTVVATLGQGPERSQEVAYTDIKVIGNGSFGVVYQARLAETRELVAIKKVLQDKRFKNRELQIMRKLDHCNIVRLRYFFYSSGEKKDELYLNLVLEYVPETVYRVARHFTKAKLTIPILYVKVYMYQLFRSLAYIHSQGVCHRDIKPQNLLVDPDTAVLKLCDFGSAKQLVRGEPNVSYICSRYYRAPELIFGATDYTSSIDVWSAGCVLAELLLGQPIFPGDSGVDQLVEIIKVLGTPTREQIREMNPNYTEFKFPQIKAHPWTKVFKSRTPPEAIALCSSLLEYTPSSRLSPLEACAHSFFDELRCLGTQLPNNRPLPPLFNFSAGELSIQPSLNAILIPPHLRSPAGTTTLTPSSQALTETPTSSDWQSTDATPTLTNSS

- Ki [1]: > 2000 nM (inactive)
- Ki [2]: > 2.51 nM (inactive)
- Ki [3]: 2000 nM (active)
- pKi [3]: 5.7
- Ki [4]: 6310 nM (active)
- pKi [4]: 5.2
- Ki [5]: 1580 nM (active)
- pKi [5]: 5.8
- Ki (Aurora kinase A): > 1580 nM (inactive)
- Ki [6]: > 1580 nM (inactive)
- Ki [7]: > 7940 nM (inactive)
- Ki [8]: 0.2 nM (active)
- pKi [8]: 9.7
- Ki [9]: 200 nM (active)
- pKi [9]: 6.7
- Ki [10]: > 3980 nM (inactive)
- Ki [11]: 25.1 nM (active)
- pKi [11]: 7.6
- Ki [12]: > 1580 nM (inactive)
- Ki [13]: 25.1 nM (active)
- pKi [13]: 7.6
- Ki [14]: 6.31 nM (active)
- pKi [14]: 8.2
- Ki [15]: > 1580 nM (inactive)
- Ki [16]: > 7940 nM (inactive)
- Ki [17]: 79.4 nM (active)
- pKi [17]: 7.1
- Ki [18]: > 2510 nM (inactive)
- Ki [19]: 631 nM (active)
- pKi [19]: 6.2
- Ki [20]: > 1580 nM (inactive)
- Ki [21]: 15.8 nM (active)
- pKi [21]: 7.8
- Ki [22]: 10000 nM (active)
- pKi [22]: 5
- Ki [23]: 6.31 nM (active)
- pKi [23]: 8.2
- Ki [24]: 79.4 nM (active)
- pKi [24]: 7.1
- Ki [25]: 0.631 nM (active)
- pKi [25]: 9.2
- Ki [26]: > 7940 nM (inactive)
- Ki [27]: 2000 nM (active)
- pKi [27]: 5.7
Compound: NC(=O)c1cc(-c2ccnc(N)n2)[nH]c1-c1ccc(Cl)cc1Cl

- Ki [1]: > 2000 nM (inactive)
- Ki [4]: 5.01 nM (active)
- Ki (Aurora kinase A): > 1580 nM (inactive)
- Ki [6]: > 1580 nM (inactive)
- Ki [7]: 2000 nM (active)
- Ki [8]: 251 nM (active)
- Ki [9]: > 6310 nM (inactive)
- Ki [10]: 794 nM (active)
- Ki [11]: 1260 nM (active)
- Ki [28]: 25.1 nM (active)
- Ki [12]: 6.31 nM (active)
- Ki [13]: 39.8 nM (active)
- Ki [14]: 398 nM (active)
- Ki [29]: 398 nM (active)
- Ki [15]: 1000 nM (active)
- Ki [16]: 398 nM (active)
- Ki [17]: 316 nM (active)
- Ki (Focal adhesion kinase 1): > 1580 nM (inactive)
- Ki [18]: > 2510 nM (inactive)
- Ki [19]: 251 nM (active)
- Ki [20]: 398 nM (active)
- Ki [30]: 251 nM (active)
- Ki [22]: 158 nM (active)
- Ki [23]: 63.1 nM (active)
- Ki [24]: 2510 nM (active)
- Ki [27]: 316 nM (active)
Compound: NC(COc1cncc(-c2ccc3c(c2)C(=Cc2ccco2)C(=O)N3)c1)Cc1c[nH]c2ccccc12 (stereo not drawn)

Compound: Cc1ccc(-n2nc(C(C)(C)C)cc2NC(=O)Nc2ccc(OCCN3CCOCC3)c3ccccc23)cc1 [DORAMAPIMOD]
- Ki [3]: > 3160 nM (inactive)
- Ki [31]: > 2510 nM (inactive)
- Ki [26]: > 3980 nM (inactive)
